# Assay results reported in patent US9546164B2 (GENENTECH, INC., priority 2013, dated 2017).
# Structures can show the parent of a compound that is named as a salt.
# Target: hNav1.7 (Homo sapiens (Human), UniProt Q15858)
# Assay: Tritiated sulfonamide competitive binding to membranes from cells expressing hNav1.7 and the β1 subunit;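 further: Filter-bound radioactivity counted by liquid scintillation, nonspecific binding defined with excess unlabelled ligand, IC50 fitted to percent inhibition of specific binding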
# Conditions: not given
# hNav1.7, sequence (Q15858 other isoform, or with tags, fused parts or gaps): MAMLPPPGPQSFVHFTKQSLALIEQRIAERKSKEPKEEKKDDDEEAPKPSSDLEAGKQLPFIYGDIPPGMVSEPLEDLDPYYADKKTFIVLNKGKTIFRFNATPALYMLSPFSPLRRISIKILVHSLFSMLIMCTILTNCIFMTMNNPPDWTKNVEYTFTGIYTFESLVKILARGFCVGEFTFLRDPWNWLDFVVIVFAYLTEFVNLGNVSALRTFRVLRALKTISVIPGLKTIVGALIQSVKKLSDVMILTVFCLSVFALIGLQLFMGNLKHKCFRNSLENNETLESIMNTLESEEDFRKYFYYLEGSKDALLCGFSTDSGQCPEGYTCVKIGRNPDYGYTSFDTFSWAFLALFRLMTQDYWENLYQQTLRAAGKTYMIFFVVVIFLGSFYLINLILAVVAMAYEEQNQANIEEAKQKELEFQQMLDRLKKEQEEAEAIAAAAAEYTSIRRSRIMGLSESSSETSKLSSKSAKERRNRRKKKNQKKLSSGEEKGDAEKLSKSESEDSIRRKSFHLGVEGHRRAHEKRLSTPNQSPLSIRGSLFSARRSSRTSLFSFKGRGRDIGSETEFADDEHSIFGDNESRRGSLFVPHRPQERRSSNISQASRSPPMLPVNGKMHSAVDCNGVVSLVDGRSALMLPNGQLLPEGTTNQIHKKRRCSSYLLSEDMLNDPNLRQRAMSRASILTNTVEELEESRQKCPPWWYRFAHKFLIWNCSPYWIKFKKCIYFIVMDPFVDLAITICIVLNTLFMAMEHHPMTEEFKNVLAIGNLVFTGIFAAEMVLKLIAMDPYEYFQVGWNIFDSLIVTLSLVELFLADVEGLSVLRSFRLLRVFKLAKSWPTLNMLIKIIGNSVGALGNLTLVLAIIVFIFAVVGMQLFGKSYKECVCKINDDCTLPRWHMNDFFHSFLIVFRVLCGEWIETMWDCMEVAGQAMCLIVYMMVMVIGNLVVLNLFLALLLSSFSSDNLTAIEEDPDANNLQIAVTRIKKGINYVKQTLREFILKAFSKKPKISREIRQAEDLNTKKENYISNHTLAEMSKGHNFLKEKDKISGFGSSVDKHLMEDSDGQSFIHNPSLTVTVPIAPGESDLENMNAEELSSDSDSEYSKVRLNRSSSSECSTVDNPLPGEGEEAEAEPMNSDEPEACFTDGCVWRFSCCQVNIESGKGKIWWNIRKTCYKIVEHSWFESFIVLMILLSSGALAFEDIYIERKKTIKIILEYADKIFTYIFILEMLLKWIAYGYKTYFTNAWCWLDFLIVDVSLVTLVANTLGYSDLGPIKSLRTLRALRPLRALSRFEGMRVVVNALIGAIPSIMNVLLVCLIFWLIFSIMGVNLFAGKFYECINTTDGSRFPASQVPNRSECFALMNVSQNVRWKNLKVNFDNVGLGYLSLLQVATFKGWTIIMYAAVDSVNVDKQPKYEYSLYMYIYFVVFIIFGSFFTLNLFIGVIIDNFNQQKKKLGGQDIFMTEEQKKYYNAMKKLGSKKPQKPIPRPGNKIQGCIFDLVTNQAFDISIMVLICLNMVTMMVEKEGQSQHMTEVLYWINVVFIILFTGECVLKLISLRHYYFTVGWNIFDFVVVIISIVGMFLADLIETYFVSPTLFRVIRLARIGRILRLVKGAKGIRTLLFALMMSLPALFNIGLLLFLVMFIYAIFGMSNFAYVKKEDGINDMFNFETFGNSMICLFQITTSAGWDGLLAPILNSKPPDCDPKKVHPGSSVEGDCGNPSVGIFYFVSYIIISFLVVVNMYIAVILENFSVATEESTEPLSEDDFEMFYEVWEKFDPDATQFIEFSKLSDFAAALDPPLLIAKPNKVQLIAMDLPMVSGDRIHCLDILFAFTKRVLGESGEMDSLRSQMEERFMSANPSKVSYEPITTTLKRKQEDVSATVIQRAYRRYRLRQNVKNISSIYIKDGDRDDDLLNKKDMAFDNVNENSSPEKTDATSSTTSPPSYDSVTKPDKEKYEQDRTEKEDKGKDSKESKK
# hNav1.7, sequence (Q07699 19-218 partner): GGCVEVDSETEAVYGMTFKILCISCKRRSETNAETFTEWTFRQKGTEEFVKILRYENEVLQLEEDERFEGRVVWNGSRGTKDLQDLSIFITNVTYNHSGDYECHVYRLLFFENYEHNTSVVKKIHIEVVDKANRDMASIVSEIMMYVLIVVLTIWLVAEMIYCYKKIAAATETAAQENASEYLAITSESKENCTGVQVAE
row,IC50,Structure (SMILES)
1,3.6 nM,"O=C(NS(=O)(=O)N1CCC1)c1cc(C2CC2)c(O[C@@H]2CCCN(Cc3ccc(F)cc3C(F)(F)F)C2)cc1F [Example 36, (R)—N-(azetidin-1-ylsulfonyl)-5-cyclopropyl-2-fluoro-4-((1-(4-fluoro-2-(trifluoromethyl)benzyl)piperidin-3-yl)oxy)benzamide]"
2,15.1 nM,"O=C(NS(=O)(=O)N1CCC1)c1cc(C2CC2)c(O[C@@H]2CCCN(c3ccc(F)cc3)C2)cc1F [Example 37, (R)—N-(azetidin-1-ylsulfonyl)-5-cyclopropyl-2-fluoro-4-((1-(4-fluorophenyl)piperidin-3-yl)oxy)benzamide, trifluoroacetic acid salt]"
3,3.9 nM,"O=C(NS(=O)(=O)C1CC1)c1cc(C2CC2)c(O[C@@H]2CCCN(c3ccc(F)cc3)C2)cc1F [Example 38, (R)-5-cyclopropyl-N-(cyclopropylsulfonyl)-2-fluoro-4-((1-(4-fluorophenyl)piperidin-3-yl)oxy)benzamide]"
4,2.1 nM,"O=C(NS(=O)(=O)C1CC1)c1cc(C2CC2)c(O[C@@H]2CCCN(c3cc(Cl)cc(Cl)c3)C2)cc1F [Example 42, (R)-5-cyclopropyl-N-(cyclopropylsulfonyl)-4-((1-(3,5-dichlorophenyl)piperidin-3-yl)oxy)-2-fluorobenzamide]"
5,4.9 nM,"O=C(NS(=O)(=O)N1CCC1)c1cc(C2CC2)c(O[C@@H]2CCCN(c3cc(Cl)cc(Cl)c3)C2)cc1F [Example 43, (R)—N-(azetidin-1-ylsulfonyl)-5-cyclopropyl-4-((1-(3,5-dichlorophenyl)piperidin-3-yl)oxy)-2-fluorobenzamide]"
6,3.6 nM,"CS(=O)(=O)NC(=O)c1cc(C2CC2)c(O[C@@H]2CCCN(c3cc(Cl)cc(Cl)c3)C2)cc1F [Example 44, (R)-5-cyclopropyl-4-((1-(3,5-dichlorophenyl)piperidin-3-yl)oxy)-2-fluoro-N-(methylsulfonyl)benzamide]"

row,Structure (SMILES),IC50
1,"O=C(NS(=O)(=O)C1CC1)c1cc(Cl)c(O[C@@H]2CCCN(Cc3ccc(F)cc3Cl)C2)cc1F.O=C(O)C(Cl)(Cl)Cl [Example 39, (R)-5-chloro-4-((1-(2-chloro-4-fluorobenzyl)piperidin-3-yl)oxy)-N-(cyclopropylsulfonyl)-2-fluorobenzamide, trichloroacetic acid salt]",6.8 nM

# Same assay, conditions: read-out: Ligand Binding Assay; 100 pM [3H]compound, membranes with hNav1.7 and β1 subunit, 18 h, room temperature
row,IC50,Structure (SMILES)
1,4580 nM,"O=C(NS(=O)(=O)N1CCC1)c1cc(C2CC2)c(O[C@H]2CCN(Cc3ccccc3)C2)cc1F [Example 45, (S)—N-(azetidin-1-ylsulfonyl)-4-((1-benzylyprrolidin-3-yl)oxy)-5-cyclopropyl-2-fluorobenzamide]"
2,920 nM,"O=C(NS(=O)(=O)N1CCC1)c1cc(C2CC2)c(O[C@@H]2CCN(Cc3ccccc3)C2)cc1F [Example 46, (R)—N-(azetidin-1-ylsulfonyl)-4-((1-benzylpyrrolidin-3-yl)oxy)-5-cyclopropyl-2-fluorobenzamide]"
3,< 1.6 nM,C[C@@H]1CC[C@@H](Oc2cc(F)c(C(=O)NS(C)(=O)=O)cc2C2CC2)CN1Cc1ccc(F)cc1Cl [Example 52]
4,8 nM,"O=C(NS(=O)(=O)C1CC1)c1cc(C2CC2)c(CN2CCC[C@H](Oc3cc(Cl)cc(Cl)c3)C2)cc1F [Example 53, (S)-5-cyclopropyl-N-(cyclopropylsulfonyl)-4-((3-(3,5-dichlorophenoxy)-piperidin-1-yl)methyl)-2-fluorobenzamide]"
5,23.3 nM,"O=C(NS(=O)(=O)C1CC1)c1cc(C2CC2)c(CN2CCC[C@@H](Oc3cc(Cl)cc(Cl)c3)C2)cc1F [Example 55, (R)-5-cyclopropyl-N-(cyclopropylsulfonyl)-4-((3-(3,5-dichlorophenoxy)piperidin-1-yl)methyl)-2-fluorobenzamide]"

# Continued, compound first:
row,Structure (SMILES),IC50
1,"O=C(NS(=O)(=O)N1CCC1)c1cc(C2CC2)c(OCC2CC3CCC(C2)N3Cc2ccccc2Cl)cc1F (stereo not drawn) [Example 47, N-(azetidin-1-ylsulfonyl)-4-((8-(2-chlorobenzyl)-8-azabicyclo[3.2.1]octan-3-yl)methoxy)-5-cyclopropyl-2-fluorobenzamide]",25.1 nM
2,"O=C(NS(=O)(=O)N1CCC1)c1cc(C2CC2)c(OCC2CC3CCC(C2)N3Cc2ccccc2)cc1F (stereo not drawn) [Example 48, N-(azetidin-1-ylsulfonyl)-4-((8-benzyl-8-azabicyclo[3.2.1]octan-3-yl)methoxy)-5-cyclopropyl-2-fluorobenzamide]",2820 nM
3,"O=C(NS(=O)(=O)N1CCC1)c1cc(C2CC2)c(CN2CCC[C@H](Oc3cc(Cl)cc(Cl)c3)C2)cc1F [Example 54, (S)—N-(azetidin-1-ylsulfonyl)-5-cyclopropyl-4-((3-(3,5-dichlorophenoxy)piperidin-1-yl)methyl)-2-fluorobenzamide, acetic acid salt]",22 nM
4,"O=C(NS(=O)(=O)N1CCC1)c1cc(C2CC2)c(CN2CCC[C@@H](Oc3cc(Cl)cc(Cl)c3)C2)cc1F [Example 56, (R)—N-(azetidin-1-ylsulfonyl)-5-cyclopropyl-4-((3-(3,5-dichlorophenoxy)piperidin-1-yl)methyl)-2-fluorobenzamide]",63.5 nM
5,"O=C(NS(=O)(=O)C1CC1)c1cc(C2CC2)c(CN2CCC(Oc3cc(Cl)cc(Cl)c3)CC2)cc1F [Example 57, 5-cyclopropyl-N-(cyclopropylsulfonyl)-4-((4-(3,5-dichlorophenoxy)piperidin-1-yl)methyl)-2-fluorobenzamide, trifluoroacetic acid salt]",3.8 nM
6,"CS(=O)(=O)NC(=O)c1cc(Cl)c(OCC2CN(C(c3ccccc3)c3ccccc3)C2)cc1F [Example 59, 4-((1-benzhydrylazetidin-3-yl)methoxy)-5-chloro-2-fluoro-N-(methylsulfonyl)benzamide]",76 nM
7,"C[Si](C)(C)CCS(=O)(=O)NC(=O)c1cc(C2CC2)c(OCC2CN(C(c3ccccc3)c3ccccc3)C2)cc1F [Example 60, 4-((1-benzhydrylazetidin-3-yl)methoxy)-5-cyclopropyl-2-fluoro-N-((2-(trimethylsilyl)ethyl)sulfonyl)benzamide]",1600 nM
8,"COCCS(=O)(=O)NC(=O)c1cc(C2CC2)c(OCC2CN(C(c3ccccc3)c3ccccc3)C2)cc1F [Example 61, 4-((1-benzhydrylazetidin-3-yl)methoxy)-5-cyclopropyl-2-fluoro-N-((2-methoxyethyl)sulfonyl)benzamide]",57 nM
9,O=C(NS(=O)(=O)C(F)F)c1cc(C2CC2)c(OCC2CN(C(c3ccccc3)c3ccccc3)C2)cc1F [Example 62],47 nM
10,"O=C(NS(=O)(=O)CCC(F)(F)F)c1cc(C2CC2)c(OCC2CN(C(c3ccccc3)c3ccccc3)C2)cc1F [Example 63, 4-((1-benzhydrylazetidin-3-yl)methoxy)-5-cyclopropyl-2-fluoro-N-((3,3,3-trifluoropropyl)sulfonyl)benzamide]",46 nM
11,"O=C(NS(=O)(=O)CC1CC1)c1cc(C2CC2)c(OCC2CN(C(c3ccccc3)c3ccccc3)C2)cc1F [Example 64, 4-((1-benzhydrylazetidin-3-yl)methoxy)-5-cyclopropyl-N-((cyclopropylmethyl)-sulfonyl)-2-fluorobenzamide]",4.7 nM
12,"CCCCS(=O)(=O)NC(=O)c1cc(C2CC2)c(OCC2CN(C(c3ccccc3)c3ccccc3)C2)cc1F [Example 65, 4-((1-benzhydrylazetidin-3-yl)methoxy)-N-(butylsulfonyl)-5-cyclopropyl-2-fluorobenzamide]",34 nM
